The values below come from publication PMC5011342, “A high throughput drug screening assay to identify compounds that promote oligodendrocyte differentiation using acutely dissociated and purified oligodendrocyte precursor cells” (BMC Research Notes, 2016).

Molecules are shown by their SMILES.

Data set [1] has as its system acutely dissociated and purified rat OPCs. In words: Acute OL differentiation assay (MBP expression/cell, immunofluorescent image quantification). It is filed as cell-based. Conditions: for activation at 2 µM: 2 uM test compound, read-out: OL differentiation, 2 uM (% Quet); for activation at 10 µM: 10 uM test compound, read-out: OL differentiation, 10 uM (% Quet); for hit in OL differentiation assay, MRF-TMC: ● = confirmed hit in this paper's assay; for promotion of OL differentiation (in words): MBP expression versus 0.1 % DMSO negative control. The gist of the method:
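This acute differentiation assay used purified rat OPCs from postnatal day 6–7 pups, seeded into PDL/laminin-coated 96-well plates in differentiation medium lacking PDGF and FGF. Compounds were applied in quadruplicate after a 1–2 h preincubation at 37 °C, 10 % CO2, with 0.1 % DMSO negative and 40 ng/ml T3 positive controls in eight wells. After fixation on DIV4, anti-MBP immunofluorescence images yielded MBP expression/cell.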

Another data set has as its system Mouse OPCs. Conditions: ● = hit reported; cited from earlier work.
For a further data set, the system named is expanded OPCs. The experiment in a line: cells. The gist of the method:
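Toxicity screen: compounds added at 0.1, 1 and 10 µM to PDGF-AA-expanded OPCs in 96-well plates, 3-day incubation at 37 °C, 10% CO2, then alamarBlue 1:10 for 4 h with fluorescence readout. Results set screening doses of 10/2, 2/0.4 or 0.4/0.08 µM.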

A further data set concerns Rat OPCs, Mouse OPCs. Conditions: ● = hit reported; cited from earlier work.
For a further data set, the system named is Rat OPCs. Conditions: ● = hit reported; cited from earlier work.
The conditions of data set [2]: in vivo models; cited from earlier work.
Details of data set [3]: method as in Trial NCT00039988. To be noted: add-on therapy to capaxone (glatiramir acetate), RRMS patients; ref Trial NCT00039988; cited from earlier work.
The conditions of data set [4]: clinical trial of MS; cited from earlier work.
The subject of another data set is transplanted hOPCs. More on the design: method as in PMID 25716865. To be noted: hypomyelinated shiverer/rag2 brain; cited from earlier work.
Setting [5] is: Rattus norvegicus, relative to quetiapine, sheet "All OLga data".

Usually EC50 stands for the concentration that produces a half-maximal response. Higher therefore signals lower potency in that assay. Usually viability stands for a read-out of living cells in per cent, often relative to untreated cells. `O[C@@H]1CCCC[C@H]1N1CCC(c2ccccc2)CC1` (racemic) [Vesamicol, reference compound]: in data set [1] (setting [5]), the activation at 2 µM turned out to be 80.7% and the activation at 10 µM was 151%. Further, the EC50 in data set [1] (Rattus norvegicus, average EC50 for induction of OL differentiation from independent biological replicates, eight concentrations) was found to be 1400 nM. Besides, the “hit in OL differentiation assay, MRF-TMC” value in data set [1] is on record as “●”. For the same compound, in the data set on Mouse OPCs, the “hit in OL differentiation assay, Najm” value is given as “●”. Moreover, the viability at 0.1 µM in the data set with expanded OPCs (Rattus norvegicus, 72 h, read-out: 0.1 µM (% DMSO), alamarBlue viability of expanded OPCs, compound at 0.1 µM, sheet All Tox data) amounted to 94.3%. Besides, in the data set on expanded OPCs (Rattus norvegicus, 72 h, read-out: 1 µM (% DMSO), alamarBlue viability of expanded OPCs, compound at 1 µM, sheet All Tox data), the viability at 1 µM stood at 120%. Besides, the viability at 10 µM in the data set with expanded OPCs (Rattus norvegicus, 72 h, read-out: 10 µM (% DMSO), alamarBlue viability of expanded OPCs, compound at 10 µM, sheet All Tox data) was found to be 146%.
Take `CN1[C@@H]2CC[C@H]1C[C@@H](OC(c1ccccc1)c1ccccc1)C2` [Benztropine]: the “hit in OL differentiation assay, Mei” value with Rat OPCs, Mouse OPCs is recorded as “●”. Moreover, the “hit in OL differentiation assay, MRF-TMC” value in data set [1] is recorded as “●”. The “hit in OL differentiation assay, Deshmukh” value in the data set on Rat OPCs is “●”. The “hit in OL differentiation assay, Najm” value in the data set with Mouse OPCs is given as “●”. In [2], the stimulating remyelination result is reported as “efficacy in stimulating remyelination”.
In the case of `CN1CCC[C@@H]1CCO[C@](C)(c1ccccc1)c1ccc(Cl)cc1` [Clemastine], the “hit in OL differentiation assay, Mei” value in the data set with Rat OPCs, Mouse OPCs was “●”. Also, in [1], the “promotion of OL differentiation (in words)” value is recorded as “could promote OL differentiation in our assay similar to benztropine” and the “hit in OL differentiation assay, MRF-TMC” value was “●”. Moreover, the “hit in OL differentiation assay, Deshmukh” value in the data set on Rat OPCs is reported as “●”. Besides, the stimulating remyelination result in [2] is given as “efficacy in stimulating remyelination”.
Turning to `OCCOCCN1CCN(C2=Nc3ccccc3Sc3ccccc32)CC1` [Quetiapine], in the data set on Rat OPCs, Mouse OPCs, the “hit in OL differentiation assay, Mei” value is recorded as “●”. The “hit in OL differentiation assay, MRF-TMC” value in data set [1] was “●”. The “hit in OL differentiation assay, Najm” value with Mouse OPCs is listed as “●”.
With `CC/C(=C(\c1ccccc1)c1ccc(OCCN(C)C)cc1)c1ccccc1` [Tamoxifen, reference compound], the activation at 0.08 µM in data set [1] (Rattus norvegicus, test compound at 0.08 uM, NCC library screen, sheet "All OLga data", relative to quetiapine, read-out: 0.08 uM (% Quet)) came to 117%. For the same compound, the activation at 0.4 µM in [1] (Rattus norvegicus, test compound at 0.4 uM, NCC library screen, sheet "All OLga data", relative to quetiapine, read-out: 0.4 uM (% Quet)) is -49.8%. For the same compound, the “hit in OL differentiation assay, MRF-TMC” value in data set [1] is “●”. For the same compound, the “hit in OL differentiation assay, Najm” value with Mouse OPCs is reported as “●”. Moreover, the “0.1 µM (% DMSO)” value in the data set with expanded OPCs (alamarBlue viability of expanded OPCs, compound at 0.1 µM, relative to DMSO control) was 162.2 % DMSO. In addition, in the data set on expanded OPCs (alamarBlue viability of expanded OPCs, compound at 1 µM, relative to DMSO control), the “1 µM (% DMSO)” value turned out to be 55.1 % DMSO. The “10 µM (% DMSO)” value in the data set on expanded OPCs (alamarBlue viability of expanded OPCs, compound at 10 µM, relative to DMSO control) was found to be 9.5 % DMSO.
Turning to `CC(C)(C)NCC(O)c1ccc(O)c(CO)c1` (stereo not shown) [albuterol, reference compound], in [1], the “promotion of OL differentiation (in words)” value is reported as “not a hit in our screen”. Further, in data set [1] (setting [5]), the activation at 2 µM was -6% and the activation at 10 µM is 18.6%. Further, the clinical outcomes in data set [3] was “improved clinical outcomes”.
Regarding `C[C@]12CC[C@@H]3c4ccc(O)cc4CC[C@H]3[C@@H]1C[C@@H](O)[C@@H]2O` [estriol], in data set [4], the “lesion numbers and volumes” value was “reducing the lesion numbers and volumes”.
In the case of `O=C(O[C@H]1CN2CCC1CC2)N1CCc2ccccc2[C@@H]1c1ccccc1` [solifenacin], the “oligodendrocyte differentiation of transplanted hOPCs” value with transplanted hOPCs is recorded as “promoted oligodendrocyte differentiation of transplanted hOPCs”.
